Reference: patent US7060678B2, “Peptides comprising furanoid sugar amino acids for the treatment of cancer” (Dabur Research Foundation, priority 2003, dated 2006)
Like-named read-outs stand apart in the source and are kept apart here. Starred links: 1 amine or outer side, 2 acyl side, 3 side chain; linkers in the order of their positions; H or OH if unused. Non-standard residues stand in square brackets, D forms with d. Residues, ends and D or L forms follow the SMILES beside them. 2Furoyl(5-aminomethyl) = O=C(c1ccc(CN[*:1])o1)[*:2]; X2 = O=C([C@@H]1CC[C@H](CN[*:1])O1)[*:2]

Tests used:
PA1 (human ovary) = test: MTT cytotoxicity assay, PA1 cells; assay type: cell-based; conditions: human, 48 hours
Excerpt: (§1) The following cell lines were used.

PTC (colon) = test: MTT cytotoxicity assay, PTC cells; assay type: cell-based, human; conditions: human, 48 hours
Excerpt: as §1

HeP-2 (larynx) = test: MTT cytotoxicity assay, HeP-2 cells; assay type: cell-based, human; conditions: human, 48 hours
Excerpt: as §1

[1] = system: MiaPaCa.2 (human pancreas); test: MTT cytotoxicity assay, MiaPaCa.2 cells; assay type: cell-based; conditions: human, 48 hours
Excerpt: as §1

KB (oral) = test: MTT cytotoxicity assay, KB cells; assay type: cell-based, human; conditions: human, 48 hours
Excerpt: as §1

ECV-304 (endothelial) = conditions: ECV-304 cells, 48 hours, NA = Not Active
Excerpt: Although sterile phosphate buffered saline was used to prepare each stock solution for the testing described in the following example, other diluents may be used such as buffered saline, isotonic NaCl, Ringer's solution, water, distilled water, polyethylene glycol (neat or in water), Tween in water, dimethylsulfoxide up to 50% in water, propylene glycol (neat or in water), phosphate buffered saline, balanced salt solution, glycerol, and other conventional fluids that are suitable for parentral administration. To obtain a pH in the range of approximately 3.5 to 7.0, for each stock solution, the pH can be adjusted by using 1N HCl for lowering the pH or 1N NaOH for raising the pH, although other buffers such as citrate buffer, phosphate buffer and the like or other conventional agents for adjusting the pH can be used.
The MTT assay is based on the principle of uptake of MTT [3-[4,5-dimethylthiazol-2-yl]-2,5-diphenyl tetrazolium bromide], a tetrazolium salt, by the metabolically active cells where it is metabolized by active mitochondria into a blue colored formazan product which can be read spectrophotometrically. […] The formazan crystals formed inside the cells were dissolved with a detergent comprising of 10% Sodium dodecyl sulfate and 0.01 N HCl and optical density read on a multi-scan ELISA reader. The optical density was directly proportional to the number of proliferating and metabolically active cells. The following cell lines were used. PA1(human ovary), PTC (colon), HeP-2 (larynx), MiaPaCa.2 (human pancreas), KB (oral), ECV-304 (endothelial) and HeP-G2 (liver).

HeP-G2 (liver) = test: MTT cytotoxicity assay, HeP-G2 cells; assay type: cell-based, human; conditions: human, 48 hours
Excerpt: as §1

| Compound | Percent Cytotoxicity (PA1 (human ovary); 1 nM) | Percent Cytotoxicity (PA1 (human ovary); 10 nM) | Percent Cytotoxicity (PA1 (human ovary); 100 nM) | Percent Cytotoxicity (PA1 (human ovary); 1 μM) | Percent Cytotoxicity (PTC (colon); 1 nM) | Percent Cytotoxicity (PTC (colon); 10 nM) | Percent Cytotoxicity (PTC (colon); 100 nM) | Percent Cytotoxicity (PTC (colon); 1 μM) | Percent Cytotoxicity (HeP-2 (larynx); 1 nM) | Percent Cytotoxicity (HeP-2 (larynx); 10 nM) | Percent Cytotoxicity (HeP-2 (larynx); 100 nM) | Percent Cytotoxicity (HeP-2 (larynx); 1 μM) | Percent Cytotoxicity ([1]; 1 nM) | Percent Cytotoxicity ([1]; 10 nM) | Percent Cytotoxicity ([1]; 100 nM) | Percent Cytotoxicity (KB (oral); 1 nM) | Percent Cytotoxicity (KB (oral); 10 nM) | Percent Cytotoxicity (KB (oral); 100 nM) | Percent Cytotoxicity (ECV-304 (endothelial); peptide 1 nM) | Percent Cytotoxicity (ECV-304 (endothelial); peptide 10 nM) | further results |
| --- | --- | --- | --- | --- | --- | --- | --- | --- | --- | --- | --- | --- | --- | --- | --- | --- | --- | --- | --- | --- | --- |
| CSCC[C@H](NC(=O)[C@@H](N)CC(C)C)C(=O)N[C@@H](Cc1ccc(O)cc1)C(=O)NC[C@H]1CC[C@@H](C(=O)N[C@@H](Cc2ccc(O)cc2)C(=O)N[C@@H](CC(C)C)C(=O)N[C@@H](CCCCN)C(=O)O)O1 [SEQ ID NO: 13, Leu-Met-Tyr-Saa4-Tyr-Leu-Lys] (H-LMY[X2]YLK-OH) | 44.0 ± 3.9% | 41.0 ± 4.2% | 38.0 ± 3.9% | 35.5 ± 2.4% | 28.5 ± 2.0% | 26.0 ± 2.9% | 22.8 ± 2.1% | 20.8 ± 1.8% | 23.0 ± 2.1% | 21.8 ± 1.8% | 17.9 ± 1.9% | 16.4 ± 0.6% | 17.5 ± 1.9% | 14.0 ± 0.6% | 8.0 ± 0.6% | 30.0 ± 2.8% | 27.9 ± 2.1% | 26.9 ± 2.1% | 23.0 ± 1.6% | 21.0 ± 2.6% | Percent Cytotoxicity (KB (oral); 1 μM): 21.4 ± 2.1%; Percent Cytotoxicity (ECV-304 (endothelial); peptide 100 nM): 18.0 ± 1.6%; Percent Cytotoxicity (ECV-304 (endothelial); peptide 1 μM): 12.1 ± 1.3% |
| CSCC[C@H](N)C(=O)NCc1ccc(C(=O)N[C@@H](Cc2ccc(O)cc2)C(=O)N[C@@H](CC(C)C)C(=O)O)o1 [SEQ ID NO: 14, Met-Saa1-Tyr-Leu] |  |  |  |  | 28.9 ± 2.2% | 26.9 ± 2.9% | 21.8 ± 1.0% | 15.0 ± 0.5% | 11.0 ± 1.9% | 10.6 ± 1.1% | 6.0 ± 0.8% |  | 17.0 ± 1.7% | 13.9 ± 1.1% | 7.0 ± 0.3% | 14.5 ± 0.4% | 12.9 ± 0.5% |  | 12.7 ± 0.4% | 13.0 ± 0.6% | Percent Cytotoxicity (ECV-304 (endothelial); peptide 100 nM): 6.0 ± 0.0% |
| CSCC[C@H](N)C(=O)NCC1CCC(C(=O)N[C@@H](Cc2ccc(O)cc2)C(=O)N[C@@H](CC(C)C)C(=O)O)O1 (stereo partly shown) [SEQ ID NO: 16, Met-Saa3-Tyr-Leu] | 24.0 ± 2.1% | 22.9 ± 2.1% | 19.0 ± 1.0% | 16.8 ± 1.8% |  |  |  |  | 16.5 ± 1.6% | 19.2 ± 1.6% | 12.6 ± 0.5% | 10.9 ± 1.1% |  |  |  | 9.3 ± 0.3% | 9.7 ± 0.4% | 3.2 ± 0.1% | 9.3 ± 0.6% | 7.9 ± 0.1% | Percent Cytotoxicity (HeP-G2 (liver); 1 nM): 11.0 ± 1.1%; Percent Cytotoxicity (HeP-G2 (liver); 10 nM): 12.8 ± 0.7%; Percent Cytotoxicity (HeP-G2 (liver); 100 nM): 11.4 ± 0.7%; Percent Cytotoxicity (HeP-G2 (liver); 1 μM): 9.8 ± 0.7% |
| CSCC[C@H](NC(=O)[C@@H](N)CC(C)C)C(=O)NCc1ccc(C(=O)N[C@@H](Cc2ccc(O)cc2)C(=O)N[C@@H](CC(C)C)C(=O)N[C@@H](CCCCN)C(=O)O)o1 [SEQ ID NO: 18, Leu-Met-Saa1-Tyr-Leu-Lys] (H-LM[2Furoyl(5-aminomethyl)]YLK-OH) | 18.3 ± 1.8% | 22.8 ± 2.9% | 21.8 ± 2.1% | 20.3 ± 2.6% | 19.0 ± 1.6% | 28.4 ± 1.0% | 23.9 ± 2.9% | 21.7 ± 1.5% | 47.0 ± 4.8% | 38.3 ± 2.0% | 35.8 ± 2.4% | 32.9 ± 2.6% | 24.8 ± 2.0% | 21.0 ± 2.6% | 18.5 ± 0.6% | 15.9 ± 1.0% | 12.0 ± 0.3% | 14.0 ± 1.0% | 11.0 ± 0.6% |  | Percent Cytotoxicity ([1]; 1 μM): 15.0 ± 0.6%; Percent Cytotoxicity (KB (oral); 1 μM): 9.3 ± 0.4% |
